In brackets after ≈: the same amount, converted by molar mass. Several values for one entry are separate records, joined by “and”; a condition that tells them apart may be missing. Identical values can stand only once.
How the values were obtained:
[1] = Effect on cardiovascular system in beagle dogs (telemetry); type: in vivo; conditions: oral 12.5, 25, and 50 mg/kg
Description: Compound 1a was orally administered to four non-anesthetized and unrestrained male beagle dogs implanted with remote transmitters. Next, the heart rates of the four beagle dogs were measured to evaluate the effect of Compound 1a on the cardiovascular system, and whether abnormal symptoms occurred was visually checked.
In this experiment, the test substance was administered to each of the four beagle dogs in four steps. In the first administration step (0 mg/kg of Compound 1a), 0.5% MC aqueous solution as control vehicle was administered, and in the second administration step, 12.5 mg/kg of Compound 1a was administered. In the third administration step, 25 mg/kg of Compound 1a was administered, and in the fourth administration step, 50 mg/kg of Compound 1a was administered. The first to fourth administrations were performed at one-week intervals. Additionally, 0 hour before administration of the test substance, and 0.5 hours, 1 hour, 2 hours, 3 hours, 4 hours, 6 hours, 8 hours, 12 hours, and 24 hours after administration of the test substance, the heart rates of the beagle dogs were measured.

[2] = test system: adenine-induced chronic kidney disease model; assay: Adenine-induced chronic kidney disease model; type: in vivo; conditions: adenine-induced CKD mice, 3 weeks
Description: The antifibrotic effect of Compound 1a was evaluated using an adenine-induced chronic kidney disease model. 0.5% adenine (in 0.5% CMC) was orally administered to mice for 4 weeks to induce chronic kidney disease, and Compound 1a at 10, 30, and 90 mg/kg/day and the positive control substance telmisartan 10 mg/kg/day were administered orally to the mice for 3 weeks, followed by measurement of serum creatinine, serum BUN, and kidney hydroxyproline, and histopathology. In addition, the tubular-interstitial index value was determined based on the above measurement results.

[3] = Solubility in aqueous media (HPLC); type: physicochemical; conditions: for solubility at 24 h: thermodynamic from solid
Description: The solubility of Compound 1a prepared in Example 1 was evaluated in several different media, including pH 1.2 hydrochloric acid buffer, pH 3.0 citrate buffer, pH 4.7 acetate buffer, pH 6.8 phosphate buffer, simulated gastric fluid, fasted-state simulated intestinal fluid, fed-state simulated intestinal fluid, and water. About 2.17 mg of sample (based on the free base of Compound 1) for each medium was taken into a 2-mL transparent glass vial and […] of medium was added (constituents of the salt were considered Compound 1: counterion=1:0.5; target concentration: 2 mg/mL). The mixture was stirred using a magnetic stirrer at 250 RPM for 24 hours at 25° C. Next, the pH and appearance of the mixture were recorded and the mixture was filtered through a MultiScreen® HTS-HV 96-well plate (manufactured by Merck; 0.45-μm hydrophilic, low-protein-binding Durapore® membrane). Solubility was determined using HPLC, and a calibration curve was created by injecting a known concentration of Compound 1a. The filtered sample was injected (diluted appropriately as necessary) and the concentration of Compound 1a (mg/mL) in the filtrate was calculated from the calibration curve (taking salt coefficient into account). The analysis results are as follows.

[4] = target: hERG potassium ion channel (Homo sapiens, UniProt Q12809)
[5] = test system: T cells, CD4 T cells, and CD8 T cells; assay: Inhibitory effect against mouse immune cells (FACS after oral administration); type: in vivo; conditions: mice, oral 3 mg/kg
Description: In order to examine whether Compound 1, which acts on the S1P receptor, also is effective in reducing lymphocytes, the effect of Compound 1 on immune cells was evaluated. After oral administration of Compound 1 to mice at 3 mg/kg/day, changes in lymphocytes in peripheral blood (PB) and bone marrow (BM) were classified into T cells, CD4 T cells, and CD8 T cells. FACS analysis was performed 0, 4, 8, 12, 24, and 36 hours after administration of the test substance. Cell number was measured and expressed as a percentage relative to that at time 0 (% of control).

[6] = test system: T cells, CD4 T cells, and CD8 T cells; assay: Inhibitory effect against rat immune cells (FACS after oral administration); type: in vivo; conditions: SD rats
Description: In order to evaluate the effect of Compound 1a on rat immune cells, Compound 1a was administered orally to SD rats at 10 mg/kg/day, and then lymphocytes in peripheral blood (PB) and bone marrow (BM) were classified into T cells, CD4 T cells, and CD8 T cells. FACS analysis was performed 0, 4, 8, 12, 24, 36, and 48 hours after administration of the test substance. Cell number was measured and expressed as a percentage relative to that at time 0 (% of control). The numbers of T cells, CD4 T cells, and CD8 T cells were measured and expressed as percentages relative to those at time 0 (% of control).

[7] = Oxidation stability test (30% H2O2); type: physicochemical

hERG potassium ion channel, sequence (Q12809 whole entry): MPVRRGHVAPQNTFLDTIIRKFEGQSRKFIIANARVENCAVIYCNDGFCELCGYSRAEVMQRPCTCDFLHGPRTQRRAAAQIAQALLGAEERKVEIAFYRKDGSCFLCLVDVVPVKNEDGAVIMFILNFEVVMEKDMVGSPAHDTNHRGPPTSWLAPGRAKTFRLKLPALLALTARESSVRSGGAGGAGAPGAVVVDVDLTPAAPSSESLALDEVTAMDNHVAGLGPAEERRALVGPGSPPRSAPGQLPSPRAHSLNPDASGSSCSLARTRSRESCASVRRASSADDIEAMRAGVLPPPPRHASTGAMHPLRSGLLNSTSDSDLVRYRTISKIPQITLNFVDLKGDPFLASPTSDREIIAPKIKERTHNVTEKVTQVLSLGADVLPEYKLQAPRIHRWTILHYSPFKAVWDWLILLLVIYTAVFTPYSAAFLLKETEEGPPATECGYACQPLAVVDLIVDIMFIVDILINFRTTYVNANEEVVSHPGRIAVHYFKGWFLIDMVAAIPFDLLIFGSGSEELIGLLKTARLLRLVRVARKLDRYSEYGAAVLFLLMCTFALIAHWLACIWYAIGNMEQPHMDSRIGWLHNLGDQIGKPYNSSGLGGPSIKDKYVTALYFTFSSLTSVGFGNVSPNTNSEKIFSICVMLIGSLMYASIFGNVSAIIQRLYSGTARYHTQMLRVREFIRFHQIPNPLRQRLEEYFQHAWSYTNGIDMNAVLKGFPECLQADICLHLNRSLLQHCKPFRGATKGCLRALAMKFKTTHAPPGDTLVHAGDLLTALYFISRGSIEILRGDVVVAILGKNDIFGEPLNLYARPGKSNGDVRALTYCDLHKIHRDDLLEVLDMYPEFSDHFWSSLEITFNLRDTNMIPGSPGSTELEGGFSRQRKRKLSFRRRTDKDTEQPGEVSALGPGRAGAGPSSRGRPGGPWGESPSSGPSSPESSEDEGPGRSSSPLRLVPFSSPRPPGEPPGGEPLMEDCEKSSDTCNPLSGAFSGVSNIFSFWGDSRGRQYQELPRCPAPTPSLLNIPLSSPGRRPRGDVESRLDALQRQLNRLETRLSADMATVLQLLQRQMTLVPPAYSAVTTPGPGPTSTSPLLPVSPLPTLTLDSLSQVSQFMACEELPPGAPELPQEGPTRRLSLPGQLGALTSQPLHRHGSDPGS

CCCCCCCCCCn1cc(CCC(N)(CO)CO)nn1 [Compound 1a, 2-amino-2-(2-(1-decyl-1H-1,2,3-triazol-4-yl)ethyl) propane-1,3-diol]
general symptoms (visual observation) [1]: no abnormal symptoms were observed
heart rate ([1]; up to 24 hours): no change in the heart rate
kidney hydroxyproline level compared to control group ([2]; 30 mg/kg/day orally): statistically significantly decreased
kidney fibrosis (tubular-interstitial index) ([2]; 90 mg/kg/day orally): statistically significantly decreased
serum BUN level ([2]; 90 mg/kg/day orally): 157.4 ± 32.3 mg/dL
serum creatinine level ([2]; 90 mg/kg/day orally): 0.90 ± 0.12 mg/dL
Visual observation ([3]; 0.5% Methylcellulose, target 2 mg/mL): Clear solution
solubility at 24 h ([3]; 25 °C, all of the aqueous media except phosphate buffer (pH 6.8)): > 2000 µg/mL
Visual observation ([3]; FaSSIF (pH 6.5), target 2 mg/mL): Clear solution
Visual observation ([3]; FeSSIF (pH 5.8), target 2 mg/mL): Clear solution
Visual observation ([3]; SGF (pH 2.0), target 2 mg/mL): Clear solution
Visual observation ([3]; Water, target 2 mg/mL): Clear solution
solubility at 24 h ([3]; aqueous buffer, pH 3.0 Citrate buffer, 25° C., 24 hours, final pH 3.42): > 2000 µg/mL
solubility at 24 h ([3]; aqueous buffer, pH 4.7 Acetate buffer, 25° C., 24 hours, final pH 5.11): > 2000 µg/mL
solubility at 24 h ([3]; aqueous buffer, pH 6.8 Phosphate buffer, 25° C., 24 hours, final pH 6.94): 306 µg/mL (≈ 0.937 mM)
solubility at 24 h ([3]; aqueous with cosolvent or surfactant or cyclodextrin, 0.5% Methylcellulose, 25° C., 24 hours, final pH 6.04): > 2000 µg/mL
Visual observation ([3]; pH 1.2 HCl buffer, target 2 mg/mL): Clear solution
Visual observation ([3]; pH 3.0 Citrate buffer, target 2 mg/mL): Clear solution
Visual observation ([3]; pH 4.7 Acetate buffer, target 2 mg/mL): Clear solution
Visual observation ([3]; pH 6.8 Phosphate buffer, target 2 mg/mL): White suspension
solubility at 24 h ([3]; simulated gastric fluid, SGF (pH 2.0), 25° C., 24 hours, final pH 3.02): > 2000 µg/mL
solubility at 24 h ([3]; simulated gastric fluid, pH 1.2 HCl buffer, 25° C., 24 hours, target 2 mg/mL, final pH 1.75): > 2000 µg/mL
solubility at 24 h ([3]; FaSSIF (pH 6.5), 25° C., 24 hours, final pH 6.60): > 2000 µg/mL
solubility at 24 h ([3]; FeSSIF (pH 5.8), 25° C., 24 hours, final pH 5.97): > 2000 µg/mL
solubility at 24 h ([3]; Water, 25° C., 24 hours, final pH 6.04): > 2000 µg/mL
Hill coefficient [4]: 1.527
compensated suppression rate (%) of hERG channel currents ([4]; 30 μM): 82.62±7.31%
CD4 T cells in peripheral blood, relative to time 0 (% of control) ([5]; 4 hours): 16.4% and 17.6%
CD8 T cells in peripheral blood, relative to time 0 (% of control) ([5]; 4 hours): 5.9% and 9.3%
T cells in peripheral blood, relative to time 0 (% of control) ([5]; 4 hours): 40.6% and 41.6%
T-cell distribution in bone marrow (BM), % of control ([5]; 4 hours): 135% and 120%
T-cell distribution in bone marrow (BM), % of control ([5]; 24 hours): 131% and 118%
change of cell number in bone marrow (BM) [6]: no change or a tendency to increase
inhibitory effect on number of T cells in peripheral blood (PB) ([6]; dose-dependent, doses of the three values not given): 70% and 80% and 87%
Purity % ([7]; 30% H2O2 25° C. for 3 hours): 99.50%
Purity % ([7]; 30% H2O2 25° C. for 24 hours): 94.30%

— patent US12404252B2, “Salt of 2-amino-2-(2-(1-decyl-1H-1,2,3-triazol-4-yl)ethyl)propane-1,3-diol, and pharmaceutical composition containing same” (NEXTGEN BIOSCIENCE CO., LTD, priority 2021, dated 2025)
